Assay results published in US12496319B2 (INDUSTRY FOUNDATION OF CHONNAM NATIONAL UNIVERSITY, priority 2020, dated 2025).

Target: T1, NOD2 (Homo sapiens, UniProt Q9HC29)
T1 construct: host or cells: HEK293 / HEK293T cells carrying a NOD2-responsive luciferase reporter
Assay: NOD2 activity by luciferase assay in HEK293 cells
Type: cell-based
Settings: 10 ng/ml MDP control, 24 hours, untreated = 1.00
Method: Existing literature has reported that the protective effect of lactic acid bacteria on inflammatory bowel disease results from the anti-inflammatory effect of NOD2, which is an innate immune receptor protein. […] Specifically, HEK293 cells were treated with 1 MOI of several types of lactic acid bacteria, which had been transduced to generate luciferase by transcription of the luciferase gene through the stimulation of NOD2. For a control with respect to cell activity, HEK293 cells were treated with 10 ng/ml muramyl dipeptide (MDP) capable of stimulating NOD2 and then cultured in a cell incubator for 24 hours. Thereafter, the NOD2 activity was determined by luciferase assay on the luciferase generated from cell rupture. MDP, which is a component of the peptidoglycan constituting the cell wall of bacteria, is a ligand that directly acts on NOD2, and this was used as a control.

T1 sequence (Q9HC29 whole entry): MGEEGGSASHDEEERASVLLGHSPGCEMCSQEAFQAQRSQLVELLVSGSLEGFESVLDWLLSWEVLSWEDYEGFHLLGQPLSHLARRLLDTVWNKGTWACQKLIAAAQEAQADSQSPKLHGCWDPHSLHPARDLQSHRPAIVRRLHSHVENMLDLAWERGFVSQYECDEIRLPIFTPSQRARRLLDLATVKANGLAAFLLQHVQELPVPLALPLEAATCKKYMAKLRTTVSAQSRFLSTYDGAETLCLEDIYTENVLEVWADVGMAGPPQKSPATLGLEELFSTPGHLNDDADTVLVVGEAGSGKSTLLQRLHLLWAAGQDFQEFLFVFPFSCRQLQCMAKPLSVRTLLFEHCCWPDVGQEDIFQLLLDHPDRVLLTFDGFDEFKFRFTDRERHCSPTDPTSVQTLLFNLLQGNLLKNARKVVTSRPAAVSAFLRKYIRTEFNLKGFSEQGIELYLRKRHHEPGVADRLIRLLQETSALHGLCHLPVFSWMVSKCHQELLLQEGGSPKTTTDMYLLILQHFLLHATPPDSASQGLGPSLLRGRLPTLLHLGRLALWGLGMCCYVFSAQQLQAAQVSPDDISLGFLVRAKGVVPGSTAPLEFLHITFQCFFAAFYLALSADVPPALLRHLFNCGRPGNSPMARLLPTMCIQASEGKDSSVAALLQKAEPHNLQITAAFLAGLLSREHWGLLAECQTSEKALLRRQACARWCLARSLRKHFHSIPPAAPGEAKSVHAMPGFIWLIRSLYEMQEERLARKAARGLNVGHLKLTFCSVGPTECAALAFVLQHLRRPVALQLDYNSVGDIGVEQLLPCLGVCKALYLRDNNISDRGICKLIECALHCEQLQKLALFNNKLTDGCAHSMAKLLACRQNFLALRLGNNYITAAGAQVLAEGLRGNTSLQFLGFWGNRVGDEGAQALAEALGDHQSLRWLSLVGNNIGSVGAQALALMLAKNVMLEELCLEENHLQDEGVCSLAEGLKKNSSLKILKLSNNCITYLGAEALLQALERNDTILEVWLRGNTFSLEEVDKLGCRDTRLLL

Compound: CC(=O)N[C@H]1C(O)O[C@H](CO)[C@@H](O)[C@@H]1O[C@H](C)C(=O)N[C@@H](C)C(=O)N[C@H](CCC(=O)O)C(N)=O (mixture of isomers) [MDP, muramyl dipeptide]
- NOD2 Activity: 40.70
